The text below walks through data of US7595345B2, “Vitamin D receptor modulators” (Eli Lilly and Company, priority 2003, dated 2009).

In data set [1] the target is T1, RXR-VDR heterodimer (Gal4-RXR-DEF and VP16-VDR-LBD) (Homo sapiens, UniProt P11473).
T1 construct: Add the Gal4-RXR-DEF and VP16-VDR-LBD; expressed in transfected cells; host or cells: SaOs-2 cells
T1 sequence (P11473 127-423 limits assumed): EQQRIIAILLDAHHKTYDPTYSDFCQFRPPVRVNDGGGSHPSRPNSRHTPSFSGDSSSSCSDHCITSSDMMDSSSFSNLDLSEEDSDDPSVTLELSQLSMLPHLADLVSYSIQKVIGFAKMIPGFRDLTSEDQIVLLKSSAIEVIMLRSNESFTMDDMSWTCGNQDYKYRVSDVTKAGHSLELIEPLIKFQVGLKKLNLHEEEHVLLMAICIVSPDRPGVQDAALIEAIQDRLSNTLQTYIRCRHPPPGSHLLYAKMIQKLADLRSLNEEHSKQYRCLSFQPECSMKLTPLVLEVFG
T1 sequence (P19793 201-462 partner limits assumed): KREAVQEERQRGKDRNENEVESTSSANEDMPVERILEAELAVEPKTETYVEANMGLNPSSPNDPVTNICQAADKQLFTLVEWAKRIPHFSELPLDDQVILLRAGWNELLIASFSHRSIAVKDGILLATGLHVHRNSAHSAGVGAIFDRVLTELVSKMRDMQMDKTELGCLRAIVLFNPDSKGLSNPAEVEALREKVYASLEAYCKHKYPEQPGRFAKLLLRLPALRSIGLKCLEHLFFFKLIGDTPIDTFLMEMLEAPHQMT
Nature of the data set: RXR-VDR heterodimerization assay (SaOS-2 cells). The format is cell-based. Particulars: luciferase reporter pFR-LUC. The source says:
1. The RXR-VDR Heterodimer Assay:
This assay provides the VDR activity of a test compound.
This is an in vitro efficacy assay for psoriasis, abscess and adhesion. Psoriasis involves both keratinocytes and immune cells. IL-10 is a unique cytokine because it is anti-inflammatory and immunosuppressive. This assay tells us whether a VDRM is able to function as an agonist in PBMCs (primary blood mononuclear cells) or not. […] 7. Other Compound Assay Standards An alternative measure of the efficacy of compounds of the invention for treatment of osteoporosis is a numerical ratio calculated as follows: • Dose Threshold needed to induce hypercalcemia • divided by • Dose Threshold needed for bone efficacy An alternative measure of the efficacy of compounds of the invention for treatment of psoriasis is a numerical ratio calculated as follows: • Dose Threshold needed to induce hypercalcemia • divided by • Dose Threshold needed to induce keratinocyte proliferation For the above ratios, Dose Thresholds are determined from dose response curve data. 8. The CaT1 (Calcium Transport Protein 1) Assay The CaT1 Assay is an indicator for the undesirable condition of hypercalcemia. […] Preferred assay results are greater than 1000 nM. Details of the Assay Methods: (1) Materials and Method for RXR-VDR Heterodimerization Assay: Transfection Method:
Grow SaOs-2 cells in T-152 cm^2 culture flasks in growth media.
Keep the density at 5-6×10^5 cells/ml
Passage cells 1:3 twice a week
Resuspend cells in plating media and transfer into growth media.
Transfection/Treatment Media:
D-MEM Low Glucose Without Phenol Red only
T-152 cm^2 culture flask:
Use well plate to plate cells
Use Deep well plate sterile to make up treatment media.
Luciferase Assay Reagent:
Use Steady-Glo Luciferase Reagent from Promega (Cat #E2550) Consists of:
a. E2533 Assay Substrate, lyophilized product and
Aspirate media from culture flask, rinse cells with HBSS and aspirate.
Add trypsin and incubate. […]
Read the plates after drug treatment […]
Count each well using a Luminescence counter, Top Count NXT by Packard […]

A short description of data set [2]: Mouse hypercalcemia assay. The conditions noted are these: female DBF mice, oral gavage for 6 days, serum ionized calcium 6 hours after last dosing. Type of data set: in vivo. An excerpt:
4. The Mouse Hypercalcemia Assay
(4) Materials and Method for the Mouse Hypercalcemia Assay: […]

What is called EC50 is the concentration that produces a half-maximal response. A high value points to weaker potency.

Several values for one entry are separate records, joined by “and”; a condition that tells them apart may be missing. Identical values can stand only once.

Regarding `CCC(O)(CC)COc1ccc(C(CC)(CC)c2ccc(C(=O)NCC(=O)O)c(C)c2)cc1C` [Ex. 3, (4-{1-ethyl-1-[4-(2-ethyl-2-hydroxy-butoxy)-3-methyl-phenyl]-propyl}-2-methyl-benzoylamino)-acetic acid], the EC50 in data set [1] was 301 nM and 149 nM. For the same compound, the “Mouse Hypercal” value in data set [2] was 1000 µg/kg/day.

On to `CCC(CC)(c1ccc(OCC(O)(C(C)C)C(C)C)c(C)c1)c1ccc(C(=O)NCC(=O)O)c(C)c1` [Ex. 4, (4-{1-Ethyl-1-[4-(2-hydroxy-2-isopropyl-3-methyl-butoxy)-3-methyl-phenyl]-propyl}-2-methyl-benzoylamino)-acetic acid], for which, in data set [1], the EC50 is 257 nM and 127 nM. For the same compound, the “Mouse Hypercal” value in data set [2] is 73000 µg/kg/day.
